In this test the test system is sodium channel. The test is classed as binding, Wistar rats. Particulars: rat cerebral cortex membrane, 5 nM [^3 H]batracotoxinin A20-α-benzoate, 1 μM tetrodotoxin, 100 μg/mL scorpion toxin, 37° C., 1 hour.

Counter-ions that a name gives are not always drawn.

For `Cc1c(C)c2c(c(C)c1N)CC(C)(CN1CCC(CCCc3ccccc3)CC1)O2` (centres unmarked) [Example 2, 2,3-Dihydro-2,4,6,7-tetramethyl-2-[[4-(3-phenylpropyl)-1-piperidinyl]methyl]-5-benzofuranamine], the 50% inhibitory concentration (IC50) (commonly the point on the concentration scale where inhibition reaches its midpoint) stood at 280 nM. `Cc1c(C)c2c(c(C)c1N)CC(C)(CN1CCN(Cc3ccc(Cl)cc3)CC1)O2` (centres unmarked) [Example 33, 2-[[4-(4-Chlorobenzyl)-1-piperazinyl]methyl]-2,3-dihydro-2,4,6,7-tetramethyl-5-benzofuranamine trihydrochloride] showed an IC50 of 310 nM. `Cc1c(C)c2c(c(C)c1N)CC(C)(CN1CCC(Cc3ccccc3)CC1)O2` (centres unmarked) [Example 5, 2-[(4-Benzyl-1-piperidinyl)methyl]-2,3-dihydro-2,4,6,7-tetramethyl-5-benzofuranamine] registered an IC50 of 520 nM.

Consider `Cc1c(C)c2c(c(C)c1N)CC(C)(CN1CCN(CCc3ccccc3)CC1)O2` (centres unmarked) [Example 27, 2,3-Dihydro-2,4,6,7-tetramethyl-2-[[4-(2-phenylethyl)-1-piperazinyl]methyl]-5-benzofuranamine], for which inhibition was half-maximal at 200 nM (IC50).

In turn, `Cc1c(C)c2c(c(C)c1N)CC(C)(CN1CCC(CCOC(c3ccccc3)c3ccccc3)CC1)O2` (centres unmarked) [Example 25, 2-[[4-[2-(Diphenylmethoxy)ethyl]-1-piperidinyl]methyl]-2,3-dihydro-2,4,6,7-tetramethyl-5-benzofuranamine oxalate] yielded a half-inhibitory concentration (IC50) of 340 nM. In turn, `COc1ccc(CN2CCN(CC3(C)Cc4c(C)c(N)c(C)c(C)c4O3)CC2)cc1OC` (centres unmarked) [Example 32, 2-[[4-(3,4-Dimethoxybenzyl)-1-piperazinyl]methyl]-2,3-dihydro-2,4,6,7-tetramethyl-5-benzofuranamine trihydrochloride] showed an IC50 of 250 nM. Regarding `COc1ccccc1CN1CCN(CC2(C)Cc3c(C)c(N)c(C)c(C)c3O2)CC1` (centres unmarked) [Example 31, 2,3-Dihydro-2-[[4-(2-methoxybenzyl)-1-piperazinyl]methyl]-2,4,6,7-tetramethyl-5-benzofuranamine trihydrochloride], 490 nM corresponded to half-maximal inhibition (IC50). To `Cc1c(C)c2c(c(C)c1N)CC(C)(CN1CCC(NC(c3ccccc3)c3ccccc3)CC1)O2` (centres unmarked) [Example 40, 1-[(5-Amino-2,3-dihydro-2,4,6,7-tetramethylbenzofuran-2-yl)methyl]-N-(diphenylmethyl)-4-piperidinamine trihydrochloride] belongs 160 nM; to `Cc1c(C)c2c(c(C)c1N)CC(C)(CN1CCc3ccccc3CC1)O2` (centres unmarked) [Reference Example 10, 2,3-Dihydro-2,4,6,7-tetramethyl-2-[(2,3,4,5-tetrahydro-1H-3-benzazepin-3-yl)methyl]-5-benzofuranamine dihydrochloride], 470 nM. Consider `Cc1c(C)c2c(c(C)c1N)CC(C)(CN1CCC(COC(c3ccccc3)c3ccccc3)CC1)O2` (centres unmarked) [Example 24, 2-[[4-[(Diphenylmethoxy)methyl]-1-piperidinyl]methyl]-2,3-dihydro-2,4,6,7-tetramethyl-5-benzofuranamine oxalate], for which the midpoint of inhibition, the IC50, lay at 410 nM. The same measure for `CCNc1c(C)c(C)c2c(c1C)CC(C)(CN1CCC(c3ccccc3)CC1)O2` (centres unmarked) [Reference Example 8, N-ethyl-2,3-dihydro-2,4,6,7-tetramethyl-2-[(4-phenyl-1-piperidinyl)methyl]-5-benzofuranamine]: 640 nM. For the compound `Cc1c(C)c2c(c(C)c1N)CC(C)(CN1CCC(OC(c3ccc(F)cc3)c3ccc(F)cc3)CC1)O2` (centres unmarked) [Example 28, 2-[[4-[Bis(4-fluorophenyl)methoxy]-1-piperidinyl]methyl]-2,3-dihydro-2,4,6,7-tetramethyl-5-benzofuranamine oxalate], the IC50 stood at 220 nM. The compound `Cc1ccc(CN2CCN(CC3(C)Cc4c(C)c(N)c(C)c(C)c4O3)CC2)cc1` (centres unmarked) [Example 34, 2,3-Dihydro-2,4,6,7-tetramethyl-2-[[4-(4-methylbenzyl)-1-piperazinyl]methyl]-5-benzofuranamine trihydrochloride] yielded an IC50 of 420 nM. To `Cc1c(C)c2c(c(C)c1N)CC(C)(CN1CCN(Cc3ccc4c(c3)OCO4)CC1)O2` (centres unmarked) [Example 4, 2,3-Dihydro-2,4,6,7-tetramethyl-2-[[4-[(3,4-methylenedioxyphenyl)methyl]-1-piperazinyl]methyl]-5-benzofuranamine trihydrochloride] belongs 280 nM; to `Cc1c(C)c2c(c(C)c1N)CC(C)(CN1CCC(CCCCc3ccccc3)CC1)O2` (centres unmarked) [Example 3, 2,3-Dihydro-2,4,6,7-tetramethyl-2-[[4-(4-phenylbutyl)-1-piperidinyl]methyl]-5-benzofuranamine], 260 nM.

On to `COc1ccc(CN2CCN(CC3(C)Cc4c(C)c(N)c(C)c(C)c4O3)CC2)cc1` (centres unmarked) [Example 29, 2,3-Dihydro-2-[[4-(4-methoxybenzyl)-1-piperazinyl]methyl]-2,4,6,7-tetramethyl-5-benzofuranamine trihydrochloride], for which the IC50 was found to be 210 nM. In turn, `Cc1c(C)c2c(c(C)c1N)CC(C)(CN1CCC(CCCOC(c3ccccc3)c3ccccc3)CC1)O2` (centres unmarked) [Example 26, 2-[[4-[3-(Diphenylmethoxy)propyl]-1-piperidinyl]methyl]-2,3-dihydro-2,4,6,7-tetramethyl-5-benzofuranamine oxalate] had an IC50 of 220 nM. Turning to `Cc1c(C)c2c(c(C)c1N)CC(C)(CN1CCC(OC(c3ccccc3)c3ccccc3)CC1)O2` (centres unmarked) [Example 17, 2-[[4-(Diphenylmethoxy)-1-piperidinyl]methyl]-2,3-dihydro-2,4,6,7-tetramethyl-5-benzofuranamine oxalate], the IC50 came out at 320 nM. As to `COc1cccc(CN2CCN(CC3(C)Cc4c(C)c(N)c(C)c(C)c4O3)CC2)c1` (centres unmarked) [Example 30, 2,3-Dihydro-2-[[4-(3-methoxybenzyl)-1-piperazinyl]methyl]-2,4,6,7-tetramethyl-5-benzofuranamine trihydrochloride], the IC50 came to 390 nM. As for `Cc1c(C)c2c(c(C)c1N)CC(C)(CN1CCC(CCNC(c3ccccc3)c3ccccc3)CC1)O2` (centres unmarked) [Example 41, 1[(5-Amino-2,3-dihydro-2,4,6,7-tetramethylbenzofuran-2-yl)methyl]-N-(diphenylmethyl)-4-piperidineethylamine trihydrochloride], the IC50 came to 140 nM. `Cc1c(C)c2c(c(C)c1N)CC(C)(CN1CCC(CCNCCC(c3ccccc3)c3ccccc3)CC1)O2` (centres unmarked) [Example 42, 1-[(5-Amino-2,3-dihydro-2,4,6,7-tetramethylbenzofuran-2-yl)methyl]-N-(3,3-diphenylpropyl)-4-piperidineethylamine trihydrochloride] gave a 50% inhibitory concentration (IC50) of 160 nM.

`Cc1c(C)c2c(c(C)c1N)CC(C)(CN1CCN(Cc3ccccc3)CC1)O2` (centres unmarked) [Example 6, 2-[(4-Benzyl-1-piperazinyl)methyl]-2,3-dihydro-2,4,6,7-tetramethyl-5-benzofuranamine trihydrochloride] had an IC50 of 790 nM. The same measure for `Cc1c(C)c2c(c(C)c1N)CC(C)(CN1CCC(CCc3ccccc3)CC1)O2` (centres unmarked) [Example 1, 2,3-Dihydro-2,4,6,7-tetramethyl-2-[[4-(2-phenylethyl)-1-piperidinyl]methyl]-5-benzofuranamine]: 220 nM.

The values are drawn from patent US6172085A (priority 1996, dated 2001).
